Data: patent publication US4699909A, “Benzotriazolyl-4,5-dihydro-3(2H)-pyridazinones” (Dr. Karl Thomae GmbH, priority 1981, dated 1987)

Legend:
anesthetized cat = assay: Hypotensive and positive inotropic activity in the anesthetized cat; format: in vivo; settings: average; for Change in blood pressure (first value of the printed pair) / Change in blood pressure (second value of the printed pair): arterial pressure, aorta abdominalis; for Change in blood pressure (first value of the printed pair): first number before the slash; for Change in blood pressure (second value of the printed pair): second number after the slash; for Increase in dp/dt: left ventricle pressure, dp/dtmax
Protocol: Determination of hypotensive and positive inotropic activity in the anesthetized cat
The tests were carried out on cats which had been anesthetized with sodium pentobarbital (40 mg/kg i.p.). The animals breathed spontaneously. The arterial blood pressure was measured in the aorta abdominalis using a Statham pressure transducer (P 23 Dc). To determine the positive inotropic effect, the pressure in the left ventricle of the heart was measured using a catheter-tip manometer (Milliar PC-350 A). From this, the contractility parameter (dp/dtmax was obtained by means of an analog differentiator.
The test compounds were injected into a vena femoralis. Physiological saline solution or Polydiol 200 was used as the solvent. Each compound was tested on at least 3 cats in a dosage of 0.1 or 2.0 mg/kg i.v. The duration of activity of the test compounds was at least 45 minutes in each case.

thrombocyte aggregation = assay: Thrombocyte aggregation according to Born and Cross (collagen-induced, platelet-rich plasma); format: cell-based; settings: platelet-rich plasma from healthy human test subjects; aggregation initiated by collagen
Protocol: Determination of the thrombocyte aggregation according to Born and Cross [J. Physiol. 170, 397 (1964)]
The thrombocyte aggregation was determined in platelet-rich plasma from healthy human test subjects. The course of decrease in optical density after the administration of standard commercial collagen (made by the Sigma Co., St. Louis, Mo.) containing 1 mg of collagen fibrils per ml was measured photometrically and recorded. The rate of aggregation (Vmax) was deduced from the angle of inclination of the density curve. The point on the curve where there was most light transmittance was used to calculate the optical density (O.D.). To initiate maximum aggregation, about 0.01 ml of the collagen solution was added to 1 ml of platelet-rich plasma.

Acute toxicity = settings: in vivo, po; peroral, mouse
Protocol: In therapeutic doses the test substances are non-toxic. For example, compound B has a peroral LD50 of >50 mg/kg in the mouse.

Row | Compound | Change in blood pressure (first value of the printed pair) (anesthetized cat; 0.1 mg/kg i.v.) | Change in blood pressure (second value of the printed pair) (anesthetized cat; 0.1 mg/kg i.v.) | Increase in dp/dt (anesthetized cat; 0.1 mg/kg i.v.) | EC50 (thrombocyte aggregation) | LD50 (Acute toxicity) | Change in blood pressure (first value of the printed pair) (anesthetized cat; 2.0 mg/kg i.v.) | Change in blood pressure (second value of the printed pair) (anesthetized cat; 2.0 mg/kg i.v.) | Increase in dp/dt (anesthetized cat; 2.0 mg/kg i.v.)
1 | COc1ccc(C(=O)n2nnc3cc(C4=NNC(=O)CC4C)ccc32)cc1 (stereo not shown) [A, 5-Methyl-6-(1'-p-methoxybenzoyl-benzotriazol-5'-yl)-4,5-dihydro-3(2H)-pyridazinone] | -16 mm Hg | -16 mm Hg | +105% | 270 nM | – | – | – | –
2 | CC1CC(=O)NN=C1c1ccc2c(c1)nnn2C(=O)C1CCCCC1 (stereo not shown) [B, 5-Methyl-6-(1'-cyclohexanoyl-benzotriazol-5'-yl)-4,5-dihydro-3(2H)-pyridazinone] | – | – | – | 280 nM | > 50 mg/kg | -60 mm Hg | -37 mm Hg | +154%
3 | CC1CC(=O)NN=C1c1ccc2c(c1)nnn2C(C)C (stereo not shown) [C, 5-Methyl-6-(1'-isopropyl-benzotriazol-5'-yl)-4,5-dihydro-3(2H)-pyridazinone] | -27 mm Hg | -33 mm Hg | +116% | 33 nM | – | – | – | –
4 | COc1ccc(Cn2nnc3cc(C4=NNC(=O)CC4C)ccc32)cc1 (stereo not shown) [Compound E, 5-Methyl-6-(1'-p-methoxybenzyl-benzotriazol-5'-yl)-4,5-dihydro-3(2H)-pyridazinone] | -48 mm Hg | -48 mm Hg | +167% | – | – | – | – | –
5 | CCn1nnc2cc(C3=NNC(=O)CC3C)ccc21 (stereo not shown) [D, 5-Methyl-6-(1'-ethyl-benzotriazol-5'-yl)-4,5-dihydro-3(2H)-pyridazinone] | -30 mm Hg | -32 mm Hg | +125% | 41 nM | – | – | – | –
6 | CC1CC(=O)NN=C1c1ccc2c(c1)nnn2CCN(C)C (stereo not shown) [F, 5-Methyl-6-[1'-(2-dimethylaminoethyl)-benzotriazol-5'-yl]-4,5-dihydro-3(2H)-pyridazinone] | – | – | – | 300 nM | – | – | – | –
7 | CC1CC(=O)NN=C1c1ccc2c(c1)nnn2C (stereo not shown) [G, 5-Methyl-6-(1'-methyl-benzotriazol-5'-yl)-4,5-dihydro-3(2H)-pyridazinone] | -33 mm Hg | -38 mm Hg | +168% | 51 nM | – | – | – | –
